Measured values: ChEMBL document CHEMBL1671682, “Inhibition of human immunodeficiency virus type 1 by triciribine involves the accessory protein nef” (Antimicrob Agents Chemother, 2010)

Assays:
[1] = tested on: Human immunodeficiency virus 2; experiment: Antiviral activity against Human immunodeficiency virus 2 CDC 310319 infected in phytohemagglutininin and interleukin-2-stimulated PBMC assessed as inhibition of viral Reverse transcriptase by [3H]TTP incorporation assay; type: functional, organism-based
[2] = tested on: Human immunodeficiency virus 2; experiment: Antiviral activity against Human immunodeficiency virus 2 CDC 310342 infected in phytohemagglutininin and interleukin-2-stimulated PBMC assessed as inhibition of viral Reverse transcriptase by [3H]TTP incorporation assay; type: functional, organism-based
PBMC [3] = experiment: Cytotoxicity against human PBMC assessed as cell viability at 1 uM by MTS assay; type: cell-based
[4] = tested on: Simian immunodeficiency virus; experiment: Antiviral activity against simian immunodeficiency virus Mac251 infected in phytohemagglutininin and interleukin-2-stimulated PBMC assessed as inhibition of viral Reverse transcriptase by [3H]TTP incorporation assay; type: functional, organism-based
[5] = tested on: Human immunodeficiency virus 1; experiment: Antiviral activity against Human immunodeficiency virus 1 H10 harboring Tyr127His, Gly140Glu, Glu149Lys, Asp174Asn and Arg178Lys mutations in nef protein infecting in CEM-SS cells assessed as inhibition of viral Reverse transcriptase by [3H]TTP incorporation assay
[6] = tested on: Human immunodeficiency virus 1; experiment: Antiviral activity against Human immunodeficiency virus 1 A12 harboring Tyr127His, Asp174Asn and Arg178Lys mutations in nef protein infecting in CEM-SS cells assessed as inhibition of viral Reverse transcriptase by [3H]TTP incorporation assay
CEM-SS = experiment: Cytotoxicity against human CEM-SS cells by MTS assay; type: functional, cell-based
PBMC [7] = experiment: Cytotoxicity against human PBMC assessed as cell viability at 10 uM by MTS assay; type: cell-based
[8] = Cytotoxicity against human AA5 cells by MTS assay; type: cell-based
[9] = tested on: Human immunodeficiency virus 1; experiment: Antiviral activity against Human immunodeficiency virus 1 A7 harboring Tyr127His mutation in nef protein infecting in CEM-SS cells assessed as inhibition of viral Reverse transcriptase by [3H]TTP incorporation assay
H9 = experiment: Cytotoxicity against human H9 cells by MTS assay; type: functional, cell-based
[10] = tested on: Human immunodeficiency virus 1; experiment: Antiviral activity against Human immunodeficiency virus 1 D1 harboring Tyr127His mutation in nef protein infecting in CEM-SS cells assessed as inhibition of viral Reverse transcriptase by [3H]TTP incorporation assay
[11] = tested on: Simian immunodeficiency virus; experiment: Antiviral activity against simian immunodeficiency virus 69R infected in phytohemagglutininin and interleukin-2-stimulated PBMC assessed as inhibition of viral Reverse transcriptase by [3H]TTP incorporation assay; type: functional, organism-based

With Cc1cn([C@H]2C[C@H](N=[N+]=[N-])[C@@H](CO)O2)c(=O)[nH]c1=O [ZIDOVUDINE] the IC50 [1] was 0.2 nM, the IC50 [2] was 1 nM and the Activity (PBMC [3]) was “Non-toxic”. The IC50 [4] was 10 nM, the IC50 [5] was 40 nM and the IC50 [6] was 80 nM. The IC50 (CEM-SS) was over 100 nM, the Activity (PBMC [7]) was “Non-toxic” and the IC50 [8] was over 100 nM. For the same molecule, the IC50 [9] was 28 nM, the IC50 (H9) was over 100 nM and the IC50 [10] was 15 nM. The IC50 [11] was 0.5 nM.
